According to US11357752B2, “Carolacton and derivatives thereof for use in the treatment of cell proliferation disorders” (Helmholtz-Zentrum für Infektionsforschung GmbH, priority 2017, dated 2022):
Read-outs that look alike come from different tables or passages of the source.

Assays:
Assay in all cases: FoID dehydrogenase (DH) enzyme assay
[1] = target: T1, spFoID (Streptococcus pneumoniae serotype 4, UniProt Q97RI9); type: biochemical, S. pneumoniae
T1 construct: made in house; host or cells: E. coli BL21 (DE3)
Procedure: (§1) (6R,S)-5,10-Methylene-5,6,7,8-tetrahydrofolic acid ((6R,S)-5,10-CH2-THF), calcium salt and (6R,S)-5,10-Methenyl-5,6,7,8-tetrahydrofolic acid ((6R,S)-5,10-CH=THF) chloride were purchased from Schircks Laboratories (Bauma, Switzerland) and were used as substrates for FoID dehydrogenase and cyclohydrolase enzyme assays, respectively. Only the R-isomer, which accounts for 50% of (6R,S)-5,10-CH2-THF and (6R,S)-5,10-CH=THF, respectively, is used by the enzyme. (6R,S)-5,10-CH2-THF was dissolved in N2-spargeled basic buffer (50 mM Tris-HCl (pH 8.0), 100 mM β-mercaptoethanol) as described by Sah and Varshney, 2015a (6R,S)-5,10-CH=THF was first dissolved in DMSO as a 100 mM stock solution.
Because FoID is a bifunctional enzyme, dehydrogenase and cyclohydrolase activities were determined for FoID enzyme kinetics, respectively. The dehydrogenase activity of FoID was assayed for its substrate 5,10-CH2-THF and cofactor NADP+ (in the case of MTHFD2, NAD+ was used as cofactor) based on monitoring the formation of 5,10-CH=THF while the cyclohydrolase activity of FoID was determined for its substrate 5,10-CH=THF by monitoring the hydrolysis of 5,10-CH2-THF. The enzyme kinetics for the dehydrogenase activity of all FoIDs except hsMTHFD1_DC were determined at 30° C. in 50 mM Tris-HCl (pH 7.5), 30 mM β-mercaptoethanol. The hsMTHFD1_DC dehydrogenase activity was measured in 25 mM MOPS (pH 7.3), 30 mM β-mercaptoethanol at 30° C. To measure the enzyme kinetics constants for 5,10-CH2-THF, for example in the case of ecFoID, the NADP concentration was fixed at 1 mM and the concentration of 5,10-CH2-THF varied from 5 μM to 1,500 μM (R-isomer). Similarly, to measure the kinetic constants of ecFoID for NADP+, the concentration of 5,10-CH2-THF (R-isomer) was fixed at 1 mM and the concentration of NADP+ varied from 10 μM to 1,500 μM. For different FoIDs, the varied concentration range of substrates could be different. […] To monitor the formation of 5,10-CH=THF, the absorbance of the reaction mixture was monitored at 350 nm in micro UV cuvettes (BRAND, Essex, Connecticut, USA). The concentration of 5,10-CH=THF produced in the reaction was determined using an extinction co-efficient of 0.0249 μM-1 cm-1. […] The consumption of 5,10-CH=THF was measured by recording the absorbance of the reactions at 355 nm using the TECAN Infinite 200 PRO equipped with a monochromator. […] The inhibition constants (Ki) of carolacton on FoID were determined by measuring the apparent Km values when adding certain amounts of carolacton to the enzyme reactions. […] To compare the inhibition effects of carolacton between the different FoIDs, the half maximal inhibitory concentration (IC50) of carolacton on the same amount of enzyme was determined for FoIDs involved in this study. […]

[2] = target: T2, hsMTHFD2 (Homo sapiens, UniProt P13995); type: biochemical
T2 construct: His-tag (vector pHis-TEV); made in house; host or cells: E. coli BL21 (DE3)
T2 sequence (P13995 36-350): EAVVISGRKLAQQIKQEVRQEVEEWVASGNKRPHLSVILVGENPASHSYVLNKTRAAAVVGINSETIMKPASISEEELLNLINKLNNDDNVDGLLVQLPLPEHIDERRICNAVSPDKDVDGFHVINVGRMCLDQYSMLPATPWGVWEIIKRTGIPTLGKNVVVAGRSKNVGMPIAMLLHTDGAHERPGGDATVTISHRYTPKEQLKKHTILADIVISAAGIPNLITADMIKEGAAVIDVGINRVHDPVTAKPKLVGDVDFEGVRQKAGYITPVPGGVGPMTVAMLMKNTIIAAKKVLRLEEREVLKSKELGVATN
Procedure: as §1
(§2) Because FoID is a bifunctional enzyme, dehydrogenase and cyclohydrolase activities were determined for FoID enzyme kinetics, respectively. The dehydrogenase activity of FoID was assayed for its substrate 5,10-CH2-THF and cofactor NADP+ (in the case of MTHFD2, NAD+ was used as cofactor) based on monitoring the formation of 5,10-CH=THF while the cyclohydrolase activity of FoID was determined for its substrate 5,10-CH=THF by monitoring the hydrolysis of 5,10-CH2-THF. The enzyme kinetics for the dehydrogenase activity of all FoIDs except hsMTHFD1_DC were determined at 30° C. in 50 mM Tris-HCl (pH 7.5), 30 mM β-mercaptoethanol. The hsMTHFD1_DC dehydrogenase activity was measured in 25 mM MOPS (pH 7.3), 30 mM β-mercaptoethanol at 30° C. To measure the enzyme kinetics constants for 5,10-CH2-THF, for example in the case of ecFoID, the NADP concentration was fixed at 1 mM and the concentration of 5,10-CH2-THF varied from 5 μM to 1,500 μM (R-isomer). Similarly, to measure the kinetic constants of ecFoID for NADP+, the concentration of 5,10-CH2-THF (R-isomer) was fixed at 1 mM and the concentration of NADP+ varied from 10 μM to 1,500 μM. For different FoIDs, the varied concentration range of substrates could be different. The 50 μL reactions of dehydrogenase assays were initiated by adding appropriate amounts enzyme (4 nM ecFoID, 4 nM spFoID, 15 nM hsMTHFD1_DC, 20 nM hsMTHFD2, 20 nM G8S, 20 nM Q98H, 10 nM K54N, 200 nM ΔK54R55 in the corresponding assays) and terminated with 50 μL 1 M HCl after 2 min incubation at 30° C. To monitor the formation of 5,10-CH=THF, the absorbance of the reaction mixture was monitored at 350 nm in micro UV cuvettes (BRAND, Essex, Connecticut, USA). The concentration of 5,10-CH=THF produced in the reaction was determined using an extinction co-efficient of 0.0249 μM-1 cm-1. Cyclohydrolase activity for each FoID was assayed in the same buffer as dehydrogenase activity at 30° C. but for 30 s. The concentration of FoID used in each assay was 5 nM of ecFoID, spFoID and hsMTHFD1_DC, respectively, and 2 nM of hsMTHFD2. The consumption of 5,10-CH=THF was measured by recording the absorbance of the reactions at 355 nm using the TECAN Infinite 200 PRO equipped with a monochromator. To measure the enzyme kinetic constants, different concentrations of 5,10-CH=THF (varied from […]) were used in […] reaction mixtures. The inhibition constants (Ki) of carolacton on FoID were determined by measuring the apparent Km values when adding certain amounts of carolacton to the enzyme reactions. For ecFoID, 10 nM carolacton was added in the dehydrogenase assay and 50 nM carolacton was used in the cyclohydrolase assay. For spFoID, 25 nM carolacton was added in both dehydrogenase assay and cyclohydrolase assay. For hsMTHFD1_DC, 30 nM carolacton was added in the dehydrogenase assay and 10 nM in the cyclohydrolase assay. […] To compare the inhibition effects of carolacton between the different FoIDs, the half maximal inhibitory concentration (IC50) of carolacton on the same amount of enzyme was determined for FoIDs involved in this study. The enzyme concentration used to determine dehydrogenase activity IC50 was 10 nM, and the enzyme used for cyclohydrolase IC50 measurements was 5 nM. All enzyme kinetics measurements were performed as independent triplicates. […]

[3] = target: T3, hsMTHFD1 DC301 (Homo sapiens, UniProt P11586); type: biochemical
T3 construct: We therefore expressed and purified hsMTHFD2 and hsMTHFD1_DC to test them biochemically; His-tag (vector pHis-TEV); made in house; host or cells: E. coli BL21 (DE3)
T3 sequence (P11586 2-291 limits assumed): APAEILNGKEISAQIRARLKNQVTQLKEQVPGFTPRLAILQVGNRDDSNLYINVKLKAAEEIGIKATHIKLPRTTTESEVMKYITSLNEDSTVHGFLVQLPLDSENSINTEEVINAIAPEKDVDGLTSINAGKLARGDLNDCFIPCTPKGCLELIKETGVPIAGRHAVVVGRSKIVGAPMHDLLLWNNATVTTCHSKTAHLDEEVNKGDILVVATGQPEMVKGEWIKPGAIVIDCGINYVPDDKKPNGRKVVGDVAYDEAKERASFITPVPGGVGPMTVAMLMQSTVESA
Procedure: as §1, §2

[4] = 10 nM enzyme, read-out: IC50, carolacton inhibition on DH activity
[5] = vs 5,10-CH2-THF, read-out: Ki (5,10-CH2—THF), carolacton inhibition on DH activity
[6] = vs cofactor NADP+, read-out: Ki (NADP^+), carolacton inhibition on DH activity

T1 sequence (Q97RI9 whole entry): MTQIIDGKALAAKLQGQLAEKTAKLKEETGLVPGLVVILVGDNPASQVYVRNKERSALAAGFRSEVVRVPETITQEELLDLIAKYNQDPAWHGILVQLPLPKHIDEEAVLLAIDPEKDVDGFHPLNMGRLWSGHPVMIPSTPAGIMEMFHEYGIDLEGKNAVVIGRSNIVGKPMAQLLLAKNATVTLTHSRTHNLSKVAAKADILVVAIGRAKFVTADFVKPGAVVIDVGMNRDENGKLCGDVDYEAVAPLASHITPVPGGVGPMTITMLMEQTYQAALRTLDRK

CO[C@H](CC(=O)O)[C@@H](C)C(=O)[C@H](C)/C=C(\C)[C@H]1OC(=O)[C@H](O)[C@H](O)/C=C/[C@H](C)CCC[C@@H]1C [Carolacton, carolacton] showed an IC50 [1, 4] of 0.0368 µM, an IC80 ([1]; 10 nM enzyme, read-out: IC80, carolacton inhibition on DH activity) of 0.169 µM and a Ki [1, 5] of 0.0422 µM. It also gave a Ki [1, 6] of 0.0342 µM, an IC50 [2, 4] of 0.0065 µM and a Ki ([2]; cofactor is NAD in the case of hsMTHFD2, read-out: Ki (NADP^+)^a, carolacton inhibition on DH activity) of 0.0167 µM. For the same compound, the Ki [2, 5] was 0.00642 µM, the IC50 [3, 4] was 0.038 µM and the Ki [3, 5] was 0.00593 µM. For the same compound, the Ki [3, 6] was 0.0587 µM.
